Source: US20240116850A1, “COMPOSITIONS AND METHODS RELATED TO BICYCLO[2.2.1] HEPTANAMINE-CONTAINING COMPOUNDS” (The Broad Institute, Inc., priority 2020, published 2024)
Entries after “also recorded” stand apart in the source; their conditions may differ.

Key:
[1] = Dynamic Vapor Sorption (DVS) hygroscopicity; assay type: physicochemical; settings: for DVS (matrix of results from solid form characterization): summary grade Good/Moderate/Poor
Description: Dynamic Vapor Sorption (DVS) was measured via a SMS (Surface Measurement Systems) DVS Intrinsic. The relative humidity at 25° C. were calibrated against the deliquescence point of LiCl, Mg(NO3)2 and KCl.

[2] = TGA and DSC thermal characterization of salts; assay type: physicochemical; settings: summary grade Good/Moderate/Poor
Description: TGA data were collected using a TA Discovery5500/Q5000 TGA from TA Instruments. DSC was performed using a TA Discovery2500/Q2000 DSC from TA Instruments.

[3] = Equilibrium solubility in water and bio-relevant media (SGF, FaSSIF, FeSSIF); settings: for solubility: thermodynamic from solid; for Solubility (matrix of results from solid form characterization): summary grade Good/Moderate/Poor
[4] = Physical and chemical stability on storage (LC-MS and XRPD); assay type: physicochemical; settings: for decomposition or solid form change in stability assay / Stability (matrix of results from solid form characterization): 1 week stability assay; for Solid Form after storage (XRPD) / Stability: 25/60% RH; 40 C./75% RH; 1 week / Form change?: 1 week; for Stability: 25/60% RH; 40 C./75% RH; 1 week / Form change?: BRD4780 salt solid form, 25/60% RH and 40 C./75% RH; for Stability: 25/60% RH; 40 C./75% RH; 1 week: impurities estimated by LCMS by observation of the TIC; for Form change?: solid form change (XRPD); for Stability (matrix of results from solid form characterization): summary grade Good/Moderate/Poor
Description: To compare the physical/chemical stability of the salt candidates, approximate 10 mg of each solid sample was added to a 5-mL glass vial covered with Parafilm® with several pin-holes on it, and then stored under 25° C./60% RH and 40° C./75% RH. After one week storage, solids were taken out for LC-MS and XRPD test to evaluate physical and chemical stability.

[5] = as above; assay type: physicochemical
[6] = physchem; settings: thermodynamic from solid
[7] = fasted state simulated intestinal fluid (FaSSIF), pH 6.5, fassif, FaSSIF solubility, Fasted State Simulated Intestinal Fluid (pH 6.5)
[8] = fed state simulated intestinal fluid (FeSSIF), pH 5, fessif, FeSSIF solubility, Fed State Simulated Intestinal Fluid (pH 5.0)
[9] = simulated gastric fluid (SGF), pH 1.8, simulated gastric fluid, SGF solubility, Simulated gastric fluid (pH 1.8)
[10] = water, H2O solubility (mM; salt)
[11] = water, H2O solubility (mg/mL; salt), HCl salt tested at 100 mg/mL, other salts at 50 mg/mL
[12] = Fasted State Simulated Intestinal Fluid (pH 6.5)
[13] = Fed State Simulated Intestinal Fluid (pH 5.0)
[14] = Simulated gastric fluid (pH 1.8)
[15] = water, HCl salt tested at 100 mg/mL, other salts at 50 mg/mL

Row | Structure (SMILES) | DVS (% H2O uptake at 25 C./80% RH) ([1]; 80% RH) [%] | DVS (% H2O uptake at 25 C./95% RH) [1] [%] | hygroscopicity classification ([1]; DVS) | DVS (matrix of results from solid form characterization) [1] | TGA/DSC (matrix of results from solid form characterization) [2] | solubility [3, 7] [mg/mL] | solubility [3, 8] [mg/mL] | pH ([3]; final solution in FaSSIF) | pH ([3]; final solution in FeSSIF) | pH ([3]; final solution in H2O) | pH ([3]; final solution in SGF) | solubility [3, 9] [mg/mL] | Solubility (matrix of results from solid form characterization) [3] | solubility [3, 10] [mM] | decomposition or solid form change in stability assay [4] | Solid Form after storage (XRPD) ([4]; 25° C./60% RH) | Solid Form after storage (XRPD) ([4]; 40° C./75% RH) | Stability: 25/60% RH; 40 C./75% RH; 1 week [4] | Form change? [4] | Stability (matrix of results from solid form characterization) [4] | also measured
1 | CC(C)[C@@H]1[C@H]2CC[C@H](C2)[C@H]1N (racemic) [Phosphate Type B] | 1.18 | 5.8 | hygroscopic | Poor | Poor | > 29 | > 27 | 5.1 | 4.8 | 4.4 | 3.0 | > 32 | Good | > 163 | form change observed | Phosphate Type A + B | Phosphate Type A + B | No significant impurities | Phosphate A | Poor | desorption of absorbed H2O ([1]; DVS): did not fully desorb; solubility [3, 11]: > 33 mg/mL
2 | CC(C)[C@@H]1[C@H]2CC[C@H](C2)[C@H]1N.O=C(O)/C=C\C(=O)O [Maleate Type A] | 0.02 | 0.07 | not hygroscopic | Good | Good | > 27 | > 26 | 4.6 | 4.7 | 3.8 | 4.9 | > 28 | Good | > 92.8 | did not display decomposition or solid form change | Maleate Type A | Maleate Type A | No significant impurities | No change | Good | solubility [3, 11]: > 25 mg/mL
3 | CC(C)C1C2CCC(C2)C1N.Cl (racemic) [HCl salt Type A, rac-3-exo-isopropylbicyclo[2.2.1]heptan-2-endo-amine hydrochloride, reference compound] | 0.55 | 3.3 | slightly hygroscopic | Moderate | Good |  |  | 6.0 | 4.8 | 4.5 | 1.8 |  | Good |  | did not display decomposition or solid form change | HCl salt Type A | HCl salt Type A | No significant impurities | No change | Good | H2O absorption ([1]; 80% RH): 0.55 wt %; H2O absorption ([1]; 90% RH): 3.3 wt %; new peak on LC-MS chromatogram after storage ([5]; 60° C. for 24 h): a new peak was observed; Solid Form after storage (XRPD) ([5]; 60° C., 24 h): HCl salt Type A; FaSSIF solubility [3, 12]: >71 mg/mL; FeSSIF solubility [3, 13]: >75 mg/mL; SGF solubility [3, 14]: >77 mg/mL; H2O solubility (mM; salt) ([3]; water): >405.84 mM; H2O solubility (mg/mL; salt) [3, 15]: >77 mg/mL
4 | CC(C)[C@@H]1[C@H]2CC[C@H](C2)[C@H]1N.O=C(O)CCC(=O)O [Succinate Type A] | 0.08 | 0.67 | not hygroscopic | Good | Good |  |  | 4.5 | 4.6 | 4.5 | 4.4 |  |  |  | new peaks observed | Succinate Type A + peaks | Succinate Type A | No significant impurities | New Peaks | Moderate | solubility ([6]; pH 1.8, simulated gastric fluid, SGF solubility): > 28 mg/mL; solubility ([6]; pH 6.5, fassif, FaSSIF solubility): > 28 mg/mL; solubility [6, 10]: > 103 mM; solubility ([6]; water, H2O solubility (mg/mL; salt)): > 28 mg/mL; Solid Form after storage (XRPD) ([4]; 25° C./60% RH, listed as succinate Type A): new peaks were observed
5 | CC(C)[C@@H]1[C@H]2CC[C@H](C2)[C@H]1N [L-malate Type C] | 0.18 | 0.30 | not hygroscopic | Good | Poor |  |  | 6.4 | 5.2 | 7.1 | 5.3 |  | Good |  | form change observed | L-malate Type C | partly converted to L-malate Type B; also recorded: L-malate Type B + C | No significant impurities | Type B observed | Poor | FaSSIF solubility [3, 12]: >30 mg/mL; FeSSIF solubility [3, 13]: >32 mg/mL; SGF solubility [3, 14]: >33 mg/mL; H2O solubility (mM; salt) ([3]; water): >136.17 mM; H2O solubility (mg/mL; salt) [3, 15]: >39 mg/mL
6 | CC(C)[C@@H]1[C@H]2CC[C@H](C2)[C@H]1N.O=C(O)/C=C/C(=O)O [Fumarate Type A] | 0.15 | 0.16 | not hygroscopic | Good | Good | 12.4 | 17.1 | 3.5 | 4.1 | 3.4 | 3.1 | 11.9 | Moderate | 44.6 | did not display decomposition or solid form change | Fumarate Type A | Fumarate Type A | No significant impurities | No change | Good | XRPD after stirring in medium ([3]; 24 hours in FeSSIF): Additional peaks in the XRPD spectra were observed; solubility [3, 11]: 12.3 mg/mL
